Legend:
Type in all cases: cell-based, human
HaCaT cells [1] = experiment: CCK8 cell viability, concentration screening in HaCaT cells; conditions: 1 h
Protocol: (§1) HaCaT cell recovery, culture, and subculture were performed with reference to the method described by Yusha Zi et al., with some modifications ([23]). For recovery, cryopreserved HaCaT cells were retrieved from liquid nitrogen storage and quickly thawed in a 37 °C water bath with gentle shaking. Just before complete thawing, the tube was removed from the water bath, and the cell suspension was immediately transferred into a 15 mL centrifuge tube containing 9 mL of pre-warmed complete medium. The complete medium consisted of DMEM supplemented with 10% fetal bovine serum (FBS) and 1% penicillin–streptomycin (P/S). Cells were centrifuged at 800 rpm for 5 min at 4 °C. After discarding the supernatant, the cell pellet was resuspended in 5 mL of fresh complete medium and transferred to a culture flask equipped with a ventilated cap. Cells were incubated in a humidified incubator at 37 °C with 5% CO₂ and 95% humidity.
For subculturing, when cell confluence reached approximately 80%, the medium was discarded, and the cells were gently rinsed three times with 2 mL of PBS. Then, 1 mL of 0.25% trypsin solution was added, and the flask was incubated at 37 °C for about 1 min. Once the cells became round and partially detached (as observed under a microscope), 3 mL of complete medium was added to terminate the digestion. The cell suspension was gently pipetted to disperse the cells and transferred to a 15 mL centrifuge tube. After centrifugation at 800 rpm for 5 min at 4 °C, the supernatant was discarded. The pellet was resuspended in fresh medium and seeded into new culture flasks at a ratio of 1:3, followed by incubation under the same culture conditions.
After digestion and resuspension, HaCaT cells were seeded into a 96-well plate at a concentration of 1 × 10^^4 cells/ml, with 100 μL of complete culture medium added to each well. Three wells with no cells were treated with an equal volume of complete culture medium as the blank group. The cells were incubated for 24 h to allow attachment. For the experiment, the control and blank groups were replaced with an equal volume of fresh medium, while the treatment groups were treated with a concentration gradient of 100, 200, 500, 1,000, and 1,500 μg/mL H2O2 and peptide samples. The H2O2 group was incubated for 1 h, while the peptide sample group was incubated for 24 h. After incubation, the original medium was discarded, and 100 μL of CCK8 working solution (prepared from 90% DMEM + 10% CCK8 reagent) was added to each well. The blank group, which contained no cells, was used as the reference. The plate was incubated for an appropriate period, and the absorbance at 450 nm was measured using a microplate reader. Cell viability was calculated using the following formula:
Cell viability(%)=100%×(ODsample−ODblank)/(ODcontrol−ODblank).

HaCaT cells [2] = experiment: ROS quantification in H2O2-treated HaCaT cells (DCFH-DA); conditions: 500 μg/mL H2O2 1 h, no peptide; DCFH-DA fluorescence 488/525 nm normalized per mg protein; p < 0.0001 vs control (541.25 ± 25.03 AU); mean ± SD, n = 3
Protocol: After digestion and resuspension, HaCaT cells were seeded into a 6-well plate at a concentration of 1 × 10^4 cells/ml, with 2 mL of culture medium added to each well. The cells were incubated for 24 h to allow attachment and adaptation. After 24 h, the cells were divided into treatment groups. The control and blank groups were replaced with an equal volume of normal culture medium, while the treatment group was incubated with a 1,000 μg/mL peptide solution for 24 h. After that, both the control and treatment groups were treated with 500 μg/mL H2O2 and incubated for an additional 1 h.
After incubation, the medium was discarded, and DCFH-DA probe was diluted in serum-free medium at a 1:1000 ratio. Then, 1.5 mL of the diluted solution was added to each well, and the cells were incubated at 37 °C in the dark for 20 min. The blank group was treated with an equal volume of serum-free medium. […] The fluorescence intensity was measured using a fluorescence spectrophotometer with an excitation wavelength of 488 nm and an emission wavelength of 525 nm. The total protein concentration of each sample was determined using the BCA method. The fluorescence value was then normalized to the fluorescence intensity per milligram of protein, and the results were statistically analyzed.

HaCaT cells [3] = conditions: 500 μg/mL H2O2 1 h, no peptide; CCK8, 450 nm; p < 0.0001 vs control; mean ± SD, n = 3
Protocol: as §1, with “humidity. For subculturing, when cell confluence reached approximately 80%, the medium was discarded, and the cells were gently rinsed three times with 2 mL of PBS. […] The plate was incubated for an appropriate period, and the absorbance at 450 nm was measured using a microplate reader. Cell viability was calculated using the following formula: Cell viability(%)=100%×(ODsample−ODblank)/(ODcontrol−ODblank). […] The absorbance was measured and cell viability was calculated under the same conditions.” for “humidity.”

## OO [H₂O₂, hydrogen peroxide]
HaCaT cells [1]; H2O2 200 μg/mL, CCK8, vs control, p < 0.01
  effect on HaCaT cell viability at 200 μg/mL H2O2: A significant reduction
HaCaT cells [1]; H2O2 500 μg/mL, CCK8, 450 nm, mean ± SD, n = 3
  HaCaT cell viability after 500 μg/mL H2O2 (screening): 49.05 ± 4.24%
HaCaT cells [1]; H2O2 1500 μg/mL, CCK8, 450 nm
  dead HaCaT cells at 1500 μg/mL H2O2: over 90%
HaCaT cells [2]
  ROS level, H2O2 alone: 2128.33 ± 127.37 AU
HaCaT cells [3]
  HaCaT cell viability, H2O2 alone: 47.82 ± 1.87%
